Experimental findings from paper PMC6120238, “Crystal structure of the retroviral protease‐like domain of a protozoal DNA damage‐inducible 1 protein” (FEBS Open Bio, 2018) are described below.

As usually defined, the Kd is a measure of binding affinity in units of concentration.

Test [1] deals with T1, LmDdi1_1–390 (LmDdi1) (Leishmania major, UniProt I7HUG0).
T1 construct: gene DDI1; full-length residues 1-390 (UBL, RVP and UBA domains), synthetic gene 1170 bp, N-terminal His6 tag (pET-28a, NdeI/HindIII), E. coli BL21; Ni-NTA and gel filtration; immobilised by the tag on Ni-NTA sensor; RVP domain homodimer in crystal; PDB 5YS4 from this construct, 5YQ8 from construct 184-390
T1 sequence (I7HUG0 1-390): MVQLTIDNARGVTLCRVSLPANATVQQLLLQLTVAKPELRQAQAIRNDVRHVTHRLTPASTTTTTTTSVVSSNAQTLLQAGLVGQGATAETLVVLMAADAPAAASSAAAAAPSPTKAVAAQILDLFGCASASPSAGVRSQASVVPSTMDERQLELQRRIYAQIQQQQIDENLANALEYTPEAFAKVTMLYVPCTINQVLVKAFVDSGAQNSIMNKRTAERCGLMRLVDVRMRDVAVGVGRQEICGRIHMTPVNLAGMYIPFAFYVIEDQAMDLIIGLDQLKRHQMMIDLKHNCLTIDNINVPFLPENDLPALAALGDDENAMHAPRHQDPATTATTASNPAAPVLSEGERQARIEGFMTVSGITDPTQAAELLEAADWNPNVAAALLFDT
Description: bio-layer interferometry, protein on Ni-NTA sensor, […] Langmuir global fit. The test is classed as binding. In general terms: BLI is a label-free optical method that tracks binding on a fibre tip over time.

In test [2] the target is T1, LmDdi1_1–390 (LmDdi1). The test is described as above. In kind it is binding. As to conditions: 20 mM MES pH 6.0, 200 mM NaCl, 1% DMSO; inhibitor 75-600 μM; weak signal, affinity could not be quantified.

SMILES strings stand for the structures.

`CC(C)(C)NC(=O)[C@@H]1C[C@@H]2CCCC[C@@H]2CN1C[C@@H](O)[C@H](Cc1ccccc1)NC(=O)[C@H](CC(N)=O)NC(=O)c1ccc2ccccc2n1` [saquinavir] had a Kd at LmDdi1_1–390 (LmDdi1) [1] of 314 ± 12.8 µM.

For the compound `Cc1c(O)cccc1C(=O)N[C@@H](CSc1ccccc1)[C@H](O)CN1C[C@H]2CCCC[C@H]2C[C@H]1C(=O)NC(C)(C)C` [nelfinavir], the “bio-layer interferometry, protein on Ni-NTA sensor, 1:1 Langmuir global fit” value on LmDdi1_1–390 (LmDdi1) [2] is “Nelfinavir showed much less binding, and the binding affinity could not be quantified”.
